In data set [1] the test system is primarily cultured chick telencephalon nerve cells. The following applies: Neuroscience Letters, vol. 139, 205-208 (1992); result in words; cited from earlier work.
Data set [2] has as its system primarily cultured nerve cells of chick telencephalon. The experiment in a line: Inhibitory activity to kainic acid toxicity, primarily cultured nerve cells of chick telencephalon. Format: cell-based. Here is the method: (§1) The inhibitory activities to kainic acid toxicity of the substance PF1191 on primarily cultured nerve cells of chick telencephalon and rat hippocampus were examined. The test with the use of the primarily cultured nerve cells of chick telencephalon was carried out in accordance with the method reported in Neuroscience Letters, vol. 139, 205-208 […], while the test with the use of the primarily cultured nerve cells of rat hippocampus was carried out in accordance with the method reported in Brain Research, 126(1977) 397-425.
(§2) The molar concentration at which the cytotoxicity caused by the addition of 500 μM of kainic acid to the cultured cells was inhibited at a ratio of 50% was expressed in EC50 (effective concentration-fifty) in Table 1 below.

For data set [3], the system named is primarily cultured nerve cells of rat hippocampus. The experiment in a line: Inhibitory activity to kainic acid toxicity, primarily cultured nerve cells of rat hippocampus. Format: cell-based. The protocol: as §1, §2

Entries after “also recorded” stand apart in the source; their conditions may differ.

With `N#Cc1cc2[nH]c(=O)c(=O)[nH]c2cc1[N+](=O)[O-]` [CNQX, 6-cyano-7-nitroquinoxaline-2,3-dione], in data set [1], the “inhibition of kainic acid toxicity by non-NMDA receptor antagonists” value (“inhibition … by non-NMDA receptor antagonists” below) is “inhibited”.

Regarding `O=c1[nH]c2cc([N+](=O)[O-])c([N+](=O)[O-])cc2[nH]c1=O` [DNQX, 6,7-dinitroquinoxaline-2,3-dione], the “inhibition … by non-NMDA receptor antagonists” value in data set [1] was “inhibited”.

`NS(=O)(=O)c1cccc2c1c([N+](=O)[O-])cc1[nH]c(=O)c(=O)[nH]c12` [NBQX, 6-nitro-7-sulfamoylbenzo[f]quinoxaline-2,3-dione]: the “inhibition … by non-NMDA receptor antagonists” value in data set [1] is “inhibited”.

For `NC(C(=O)O)C(O)C1(C(=O)O)CCC(CC(NC(=O)c2cc(Cl)c(O)c(Cl)c2)C(=O)O)N1` (centres unmarked) [Substance PF1191], the concentration giving a half-maximal response (EC50) (usually the concentration at which the effect is half-maximal) in data set [2] (Gallus gallus, chick telencephalon nerve cells + kainic acid (500 μM), read-out: 50% Effective conc. (EC50), inhibitory activity to kainic acid toxicity) was determined as 1500 nM; in data set [3] (rat hippocampus nerve cells + kainic acid (500 μM), read-out: 50% Effective conc. (EC50), inhibitory activity to kainic acid toxicity), 450 nM. In addition, the “inhibitory activity to kainic acid toxicity in comparison with DNQX” value was “stronger inhibitory activity to kainic acid toxicity than that of DNQX; also recorded: stronger inhibitory activity to kainic acid toxicity in comparison with the known substance DNQX” in data set [2] (chick telencephalon nerve cells, kainic acid 500 μM, result in words) and “stronger inhibitory activity to kainic acid toxicity in comparison with the known substance DNQX” in data set [3] (rat hippocampus nerve cells, kainic acid 500 μM, result in words).

On to `C=C(C)[C@H]1CN[C@H](C(=O)O)[C@H]1CC(=O)O` [kainic acid], for which, in data set [1], the “toxicity to primarily cultured chick telencephalon nerve cells” value is listed as “toxic”.

The values above are taken from patent US6171829A, “Physiologically active substance PF1191 and process for producing the same” (Meiji Seika Kaisha, Ltd., priority 1997, dated 2001).
